Measured values reported in ChEMBL document CHEMBL3091428, “Synthesis and initial biological evaluation of substituted 1-phenylamino-2-thio-4,5-dimethyl-1H-imidazole derivatives” (Bioorg Med Chem Lett, 2013).
Values after ≈ are worked out from the molar mass of the structure shown.

Experiments:
Assay type in all cases: functional
[1] = tested on: Pichia kudriavzevii; assay: Antimicrobial activity against Candida krusei ATCC 6258 after 24 hrs by broth microdilution method; conditions: ATCC 6258, 24 h
[2] = tested on: Nakaseomyces glabratus; assay: Antimicrobial activity against Candida glabrata ATCC 90030 after 24 hrs by broth microdilution method; conditions: ATCC 90030, 24 h
[3] = tested on: Listeria monocytogenes; assay: Antimicrobial activity against Listeria monocytogenes ATCC 19115 after 24 hrs by broth microdilution method; conditions: ATCC 19115, 24 h
[4] = tested on: Candida albicans; assay: Antimicrobial activity against Candida albicans ATCC 90028 after 24 hrs by broth microdilution method; conditions: ATCC 90028, 24 h
[5] = tested on: Staphylococcus aureus; assay: Antimicrobial activity against Staphylococcus aureus ATCC 25923 after 24 hrs by broth microdilution method; conditions: ATCC 25923, 24 h
[6] = tested on: Enterococcus faecalis; assay: Antimicrobial activity against Enterococcus faecalis ATCC 51299 after 24 hrs by broth microdilution method; conditions: ATCC 51299, 24 h
[7] = tested on: Enterococcus faecalis; assay: Antimicrobial activity against Enterococcus faecalis ATCC 29212 after 24 hrs by broth microdilution method; conditions: ATCC 29212, 24 h
[8] = tested on: Pseudomonas aeruginosa; assay: Antimicrobial activity against Pseudomonas aeruginosa ATCC 27853 after 24 hrs by broth microdilution method; conditions: ATCC 27853, 24 h
[9] = tested on: Klebsiella pneumoniae; assay: Antimicrobial activity against Klebsiella pneumoniae ATCC 13883 after 24 hrs by broth microdilution method; conditions: ATCC 13883, 24 h
[10] = tested on: Escherichia coli; assay: Antimicrobial activity against Escherichia coli ATCC 25922 after 24 hrs by broth microdilution method; conditions: ATCC 25922, 24 h
[11] = tested on: Escherichia coli; assay: Antimicrobial activity against Escherichia coli ATCC 35218 after 24 hrs by broth microdilution method; conditions: ATCC 35218, 24 h

Row | SMILES | MIC [1] | MIC [2] | MIC [3] | MIC [4] | MIC [5] | MIC [6] | MIC [7] | MIC [8] | MIC [9] | MIC [10] | MIC [11]
1 | COc1ccc(C(=O)CSc2nc(C)c(C)n2Nc2ccc(Cl)cc2)cc1OC | 400 µg/mL (≈ 926 µM) | 400 µg/mL (≈ 926 µM) | 100 µg/mL (≈ 232 µM) | 400 µg/mL (≈ 926 µM) | 800 µg/mL (≈ 1850 µM) | 800 µg/mL (≈ 1850 µM) | 100 µg/mL (≈ 232 µM) | 400 µg/mL (≈ 926 µM) | 800 µg/mL (≈ 1850 µM) | 400 µg/mL (≈ 926 µM) | 800 µg/mL (≈ 1850 µM)
2 | Cc1nc(SCC(=O)c2cccc(F)c2)n(Nc2ccc(Cl)cc2)c1C | 400 µg/mL (≈ 1030 µM) | 400 µg/mL (≈ 1030 µM) | 200 µg/mL (≈ 513 µM) | 400 µg/mL (≈ 1030 µM) | 800 µg/mL (≈ 2050 µM) | 800 µg/mL (≈ 2050 µM) | 100 µg/mL (≈ 256 µM) | 400 µg/mL (≈ 1030 µM) | 800 µg/mL (≈ 2050 µM) | 400 µg/mL (≈ 1030 µM) | 800 µg/mL (≈ 2050 µM)
3 | Cc1nc(SCC(=O)c2ccc(F)cc2)n(Nc2ccc(Cl)cc2)c1C | 800 µg/mL (≈ 2050 µM) | 1600 µg/mL (≈ 4100 µM) | 3200 µg/mL (≈ 8210 µM) | 800 µg/mL (≈ 2050 µM) | 800 µg/mL (≈ 2050 µM) | 800 µg/mL (≈ 2050 µM) | 1600 µg/mL (≈ 4100 µM) | 1600 µg/mL (≈ 4100 µM) | 800 µg/mL (≈ 2050 µM) | 1600 µg/mL (≈ 4100 µM) | 1600 µg/mL (≈ 4100 µM)
4 | Cc1nc(SCC(=O)c2cccc(Cl)c2)n(Nc2ccc(Cl)cc2)c1C | 800 µg/mL (≈ 1970 µM) | 400 µg/mL (≈ 984 µM) | 800 µg/mL (≈ 1970 µM) | 800 µg/mL (≈ 1970 µM) | 800 µg/mL (≈ 1970 µM) | 800 µg/mL (≈ 1970 µM) | 400 µg/mL (≈ 984 µM) | 400 µg/mL (≈ 984 µM) | 800 µg/mL (≈ 1970 µM) | 800 µg/mL (≈ 1970 µM) | 800 µg/mL (≈ 1970 µM)
5 | Cc1nc(SCC(=O)c2ccc(Cl)cc2)n(Nc2ccc(Cl)cc2)c1C | 400 µg/mL (≈ 984 µM) | 800 µg/mL (≈ 1970 µM) | 800 µg/mL (≈ 1970 µM) | 800 µg/mL (≈ 1970 µM) | 800 µg/mL (≈ 1970 µM) | 800 µg/mL (≈ 1970 µM) | 800 µg/mL (≈ 1970 µM) | 400 µg/mL (≈ 984 µM) | 800 µg/mL (≈ 1970 µM) | 800 µg/mL (≈ 1970 µM) | 800 µg/mL (≈ 1970 µM)
6 | Cc1nc(SCC(=O)c2ccc(Cl)c(Cl)c2)n(Nc2ccc(Cl)cc2)c1C | 400 µg/mL (≈ 907 µM) | 400 µg/mL (≈ 907 µM) | 200 µg/mL (≈ 454 µM) | 800 µg/mL (≈ 1810 µM) | 800 µg/mL (≈ 1810 µM) | 800 µg/mL (≈ 1810 µM) | 50 µg/mL (≈ 113 µM) | 400 µg/mL (≈ 907 µM) | 800 µg/mL (≈ 1810 µM) | 800 µg/mL (≈ 1810 µM) | 200 µg/mL (≈ 454 µM)
7 | COc1ccc(Nn2c(SCC(=O)c3cccc(OC)c3)nc(C)c2C)cc1 | 800 µg/mL (≈ 2010 µM) | 800 µg/mL (≈ 2010 µM) | 800 µg/mL (≈ 2010 µM) | 800 µg/mL (≈ 2010 µM) | 800 µg/mL (≈ 2010 µM) | 200 µg/mL (≈ 503 µM) | 800 µg/mL (≈ 2010 µM) | 800 µg/mL (≈ 2010 µM) | 800 µg/mL (≈ 2010 µM) | 800 µg/mL (≈ 2010 µM) | 800 µg/mL (≈ 2010 µM)
8 | COc1ccc(C(=O)CSc2nc(C)c(C)n2Nc2ccc(OO)cc2)cc1 | 400 µg/mL (≈ 1000 µM) | 800 µg/mL (≈ 2000 µM) | 800 µg/mL (≈ 2000 µM) | 400 µg/mL (≈ 1000 µM) | 800 µg/mL (≈ 2000 µM) | 800 µg/mL (≈ 2000 µM) | 800 µg/mL (≈ 2000 µM) | 800 µg/mL (≈ 2000 µM) | 800 µg/mL (≈ 2000 µM) | 800 µg/mL (≈ 2000 µM) | 800 µg/mL (≈ 2000 µM)
9 | COc1ccc(Nn2c(SCC(=O)c3ccc(OC)c(OC)c3)nc(C)c2C)cc1 | 200 µg/mL (≈ 468 µM) | 400 µg/mL (≈ 936 µM) | 800 µg/mL (≈ 1870 µM) | 200 µg/mL (≈ 468 µM) | 800 µg/mL (≈ 1870 µM) | 1600 µg/mL (≈ 3740 µM) | 800 µg/mL (≈ 1870 µM) | 800 µg/mL (≈ 1870 µM) | 800 µg/mL (≈ 1870 µM) | 800 µg/mL (≈ 1870 µM) | 800 µg/mL (≈ 1870 µM)
10 | COc1ccc(Nn2c(SCC(=O)c3cccc(F)c3)nc(C)c2C)cc1 | 400 µg/mL (≈ 1040 µM) | 400 µg/mL (≈ 1040 µM) | 400 µg/mL (≈ 1040 µM) | 400 µg/mL (≈ 1040 µM) | 400 µg/mL (≈ 1040 µM) | 800 µg/mL (≈ 2080 µM) | 400 µg/mL (≈ 1040 µM) | 400 µg/mL (≈ 1040 µM) | 800 µg/mL (≈ 2080 µM) | 800 µg/mL (≈ 2080 µM) | 800 µg/mL (≈ 2080 µM)
11 | COc1ccc(Nn2c(SCC(=O)c3ccc(F)cc3)nc(C)c2C)cc1 | 400 µg/mL (≈ 1040 µM) | 400 µg/mL (≈ 1040 µM) | 400 µg/mL (≈ 1040 µM) | 400 µg/mL (≈ 1040 µM) | 800 µg/mL (≈ 2080 µM) | 800 µg/mL (≈ 2080 µM) | 1600 µg/mL (≈ 4150 µM) | 800 µg/mL (≈ 2080 µM) | 800 µg/mL (≈ 2080 µM) | 800 µg/mL (≈ 2080 µM) | 800 µg/mL (≈ 2080 µM)
12 | COc1ccc(Nn2c(SCC(=O)c3ccc(F)c(F)c3)nc(C)c2C)cc1 | 400 µg/mL (≈ 991 µM) | 800 µg/mL (≈ 1980 µM) | 800 µg/mL (≈ 1980 µM) | 400 µg/mL (≈ 991 µM) | 800 µg/mL (≈ 1980 µM) | 800 µg/mL (≈ 1980 µM) | 1600 µg/mL (≈ 3970 µM) | 800 µg/mL (≈ 1980 µM) | 800 µg/mL (≈ 1980 µM) | 800 µg/mL (≈ 1980 µM) | 800 µg/mL (≈ 1980 µM)
13 | COc1ccc(Nn2c(SCC(=O)c3cccc(Cl)c3)nc(C)c2C)cc1 | 400 µg/mL (≈ 995 µM) | 800 µg/mL (≈ 1990 µM) | 800 µg/mL (≈ 1990 µM) | 800 µg/mL (≈ 1990 µM) | 800 µg/mL (≈ 1990 µM) | 800 µg/mL (≈ 1990 µM) | 800 µg/mL (≈ 1990 µM) | 800 µg/mL (≈ 1990 µM) | 800 µg/mL (≈ 1990 µM) | 800 µg/mL (≈ 1990 µM) | 800 µg/mL (≈ 1990 µM)
14 | COc1ccc(Nn2c(SCC(=O)c3ccc(Cl)cc3)nc(C)c2C)cc1 | 400 µg/mL (≈ 995 µM) | 400 µg/mL (≈ 995 µM) | 400 µg/mL (≈ 995 µM) | 400 µg/mL (≈ 995 µM) | 400 µg/mL (≈ 995 µM) | 800 µg/mL (≈ 1990 µM) | 400 µg/mL (≈ 995 µM) | 800 µg/mL (≈ 1990 µM) | 400 µg/mL (≈ 995 µM) | 400 µg/mL (≈ 995 µM) | 800 µg/mL (≈ 1990 µM)
15 | COc1ccc(Nn2c(SCC(=O)c3ccc(Cl)c(Cl)c3)nc(C)c2C)cc1 | 800 µg/mL (≈ 1830 µM) | 800 µg/mL (≈ 1830 µM) | 800 µg/mL (≈ 1830 µM) | 800 µg/mL (≈ 1830 µM) | 800 µg/mL (≈ 1830 µM) | 800 µg/mL (≈ 1830 µM) | 400 µg/mL (≈ 917 µM) | 400 µg/mL (≈ 917 µM) | 800 µg/mL (≈ 1830 µM) | 400 µg/mL (≈ 917 µM) | 800 µg/mL (≈ 1830 µM)
16 | Cc1nc(SCC(=O)c2ccccc2)n(Nc2ccc(Cl)cc2)c1C | 800 µg/mL (≈ 2150 µM) | 800 µg/mL (≈ 2150 µM) | 400 µg/mL (≈ 1080 µM) | 800 µg/mL (≈ 2150 µM) | 800 µg/mL (≈ 2150 µM) | 800 µg/mL (≈ 2150 µM) | 200 µg/mL (≈ 538 µM) | 400 µg/mL (≈ 1080 µM) | 800 µg/mL (≈ 2150 µM) | 800 µg/mL (≈ 2150 µM) | 800 µg/mL (≈ 2150 µM)
17 | COc1cccc(C(=O)CSc2nc(C)c(C)n2Nc2ccc(Cl)cc2)c1 | 200 µg/mL (≈ 498 µM) | 800 µg/mL (≈ 1990 µM) | 1600 µg/mL (≈ 3980 µM) | 800 µg/mL (≈ 1990 µM) | 800 µg/mL (≈ 1990 µM) | 400 µg/mL (≈ 995 µM) | 200 µg/mL (≈ 498 µM) | 800 µg/mL (≈ 1990 µM) | 400 µg/mL (≈ 995 µM) | 800 µg/mL (≈ 1990 µM) | 800 µg/mL (≈ 1990 µM)
18 | COc1ccc(C(=O)CSc2nc(C)c(C)n2Nc2ccc(Cl)cc2)cc1 | 200 µg/mL (≈ 498 µM) | 800 µg/mL (≈ 1990 µM) | 1600 µg/mL (≈ 3980 µM) | 800 µg/mL (≈ 1990 µM) | 400 µg/mL (≈ 995 µM) | 400 µg/mL (≈ 995 µM) | 200 µg/mL (≈ 498 µM) | 800 µg/mL (≈ 1990 µM) | 400 µg/mL (≈ 995 µM) | 800 µg/mL (≈ 1990 µM) | 800 µg/mL (≈ 1990 µM)
19 | O=C(N[C@H](CO)[C@H](O)c1ccc([N+](=O)[O-])cc1)C(Cl)Cl [CHLORAMPHENICOL] | – | – | 50 µg/mL (≈ 155 µM) | – | 50 µg/mL (≈ 155 µM) | 100 µg/mL (≈ 309 µM) | 12.5 µg/mL (≈ 38.7 µM) | 50 µg/mL (≈ 155 µM) | 50 µg/mL (≈ 155 µM) | 50 µg/mL (≈ 155 µM) | 25 µg/mL (≈ 77.4 µM)
20 | CC(=O)N1CCN(c2ccc(OCC3COC(Cn4ccnc4)(c4ccc(Cl)cc4Cl)O3)cc2)CC1 (centres undefined) [KETOCONAZOLE] | 50 µg/mL (≈ 94.1 µM) | 100 µg/mL (≈ 188 µM) | – | 100 µg/mL (≈ 188 µM) | – | – | – | – | – | – | –
